Consider 1 compound from publication doi:10.1101/2023.11.08.566240v2, “Divergent Protein Kinase A contributes to the regulation of flagellar waveforms in Leishmania mexicana” (biorxiv, 2025).

The assay addresses T1, LmxPKAR1-LmxPKAC1 (mNG::PKAC1) (Leishmania mexicana, UniProt E9AP50).
T1 construct: gene LMXM_13_0160; with protein kinase A catalytic subunit isoform 1
T1 sequence (E9AP50 1-503): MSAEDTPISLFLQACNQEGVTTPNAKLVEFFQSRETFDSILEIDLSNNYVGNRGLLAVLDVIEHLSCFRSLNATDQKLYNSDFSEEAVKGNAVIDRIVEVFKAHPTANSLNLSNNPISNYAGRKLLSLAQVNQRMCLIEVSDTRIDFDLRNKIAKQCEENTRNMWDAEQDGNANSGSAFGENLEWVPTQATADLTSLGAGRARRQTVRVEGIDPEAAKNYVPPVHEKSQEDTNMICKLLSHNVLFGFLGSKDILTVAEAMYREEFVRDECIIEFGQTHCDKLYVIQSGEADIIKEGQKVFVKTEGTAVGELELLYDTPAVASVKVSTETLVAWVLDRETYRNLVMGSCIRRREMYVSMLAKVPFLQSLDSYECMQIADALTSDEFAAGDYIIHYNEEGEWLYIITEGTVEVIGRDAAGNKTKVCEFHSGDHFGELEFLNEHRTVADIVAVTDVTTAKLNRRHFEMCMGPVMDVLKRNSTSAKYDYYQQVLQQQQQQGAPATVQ
T1 sequence (E9B6S9 1-371 partner): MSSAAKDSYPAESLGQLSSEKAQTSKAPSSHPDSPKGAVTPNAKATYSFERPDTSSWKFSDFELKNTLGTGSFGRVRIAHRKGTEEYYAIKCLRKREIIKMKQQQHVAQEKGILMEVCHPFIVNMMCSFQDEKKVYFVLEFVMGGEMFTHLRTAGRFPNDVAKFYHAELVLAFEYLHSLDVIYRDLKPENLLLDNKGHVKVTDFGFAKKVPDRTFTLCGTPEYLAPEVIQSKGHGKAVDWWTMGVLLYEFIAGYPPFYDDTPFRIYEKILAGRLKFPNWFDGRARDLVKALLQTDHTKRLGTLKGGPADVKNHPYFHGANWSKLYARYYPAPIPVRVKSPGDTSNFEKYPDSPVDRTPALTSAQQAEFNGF
Briefly: release of mNG::PKAC1 fluorescence from flagellar cytoskeletons, microscopy. It counts as biochemical. As to conditions: indirect assay of PKAR1 activation; detergent-extracted cytoskeletons in PEME buffer; 10 nM to 10 µM inosine.

In turn, `OC[C@H]1O[C@@H](n2cnc3c(O)ncnc32)[C@H](O)[C@@H]1O` [inosine] returned an EC50 of about 9 nM.
